Patent US10059669B2, “2-amino-3,5-difluoro-3,6-dimethyl-6-phenyl-3,4,5,6-tetrahydropyridines as BACE1 inhibitors for treating alzheimer's disease” (H. Lundbeck A/S, priority 2014, dated 2018)

Tests used:
BACE1 [1] = biological target: T1, BACE1 (Homo sapiens (Human), UniProt P56817); assay: BACE1 efficacy assay (FRET-based, commercial BACE1 kit); format: biochemical; conditions: 10 μM test compound
Method: The efficacy assay was performed as a FRET-based assay using a commercially available BACE1 kit (Life Technologies, P2985). 2 μl test compound at 10 μM (final concentration) and 15 μl BACE1 enzyme from the kit (final concentration 3 nM) were preincubated for 15 minutes at room temperature before addition of 15 μl of substrate from the kit (250 nM final concentration) and incubated for additional 90 minutes at room temperature. The assay plate was subsequently read in a Pherastar (Ex540/Em590). The enzyme activity observed in presence of test compound were normalized to the enzyme activity observed in presence of buffer and 10 μM (final concentration) of the high affinity BACE1 reference inhibitor (S)-6-[3-Chloro-5-(5-prop-1-ynyl-pyridin-3-yl)-thiophen-2-yl]-2-imino-3,6-dimethyl-tetra-hydropyrimidin-4-one, respectively. The efficacy of the test compounds was evaluated at 10 μM (final concentration) and defined as the percent inhibition of the enzyme activity using the equation % inhibition=100%−normalized enzyme activity in percent.

P-gp (MDR1) = assay: MDCK-MDR1 assay (permeability, efflux ratio); format: in vitro ADME; conditions: dog, Papp BA/Papp AB, 60-minute incubation, Pgp substrate when ≥2
Method: The permeability of the test compounds was assessed in MDCK-MDR1 cells that were cultured to confluency (4-6 days) in a 96 transwell plate. Test compounds were diluted with the transport buffer (HBSS+1% BSA) to a concentration of 0.5 μM and applied to the apical or basolateral side of the cell monolayer. Permeation of the test compounds from A to B direction or B to A direction was determined in triplicate over a 60-minute incubation time at 37° C. and 5% CO2 with a relative humidity of 95%. Test compounds were quantified by LC-MS/MS analysis based on the peaks area ratios of analyte/IS in both the receiver and donor wells of the transwell plate.
The apparent permeability coefficient Papp (cm/s) was calculated using the equation: Papp=(dCr/dt)×Vr/(A×C0)
Where dCr/dt is the cumulative concentration of compound in the receiver chamber as a function of time (M/s); Vr is the solution volume in the receiver chamber (0.05 mL on the apical side; 0.25 mL on the basolateral side); A is the surface area for the transport, i.e. 0.0804 cm^2 for the area of the monolayer; C0 is the initial concentration in the donor chamber (VIM).
Compounds are classified Pgp substrates when efflux ratio (Papp BA/Papp AB) is ≥2.

BACE1 [2] = biological target: T1, BACE1; assay: BACE1 binding assay (SPA-based radioligand binding); conditions: pH 4.5, 10 nM radioligand, Ki calculated from IC50
Method: The binding assay was performed as SPA-based assay using a biotinylated form of human BACE1 recombinantly expressed and subsequently purified from Freestyle HEK293 cells. The binding assay was run in a 50 mM sodium acetate buffer, pH 4.5 containing 50 mM NaCl and 0.03% Tween-20 in white clear bottom 384 plates (Corning #3653). 10 nM (final concentration) radioligand ([^3H]—N-((1S,2R)-1-benzyl-3-cyclopropylamino-2-hydroxy-propyl)-5-(methanesulfonyl-methyl-amino)-N—((R)-1-phenyl-ethyl)-isophthalamide) (TRQ11569 purchased from GE Healthcare) was mixed with test compound at a given concentration, 6 nM (final concentration) human BACE1 and 25 μg Streptavidin coated PVT core SPA beads (RPNQ0007, GE Healthcare Life Sciences) in a total volume of 40 μl. Several concentrations of each test compound were tested in the assay for IC50 determination. The plates were incubated for one hour at room temperature and counted in a Wallac Trilux counter. Total and non-specific binding were determined using buffer and 1 μM (final concentration) of the high affinity BACE1 reference inhibitor (S)-6-[3-chloro-5-(5-prop-1-ynyl-pyridin-3-yl)-thiophen-2-yl]-2-imino-3,6-dimethyl-tetrahydro-pyrimidin-4-one, respectively. For each test compound, a IC50 value (the concentration mediating 50% inhibition of the specific binding of the radioligand) was determined from concentration-response curve and used to calculate the Ki from the equation Ki=IC50/(1+L/Kd), where L and Kd are the final concentration of the radioligand used in the assay and the dissociation constant of the radioligand, respectively. The Kd of the radioligand was determined from saturation binding experiments.

T1 sequence (P56817 46-501): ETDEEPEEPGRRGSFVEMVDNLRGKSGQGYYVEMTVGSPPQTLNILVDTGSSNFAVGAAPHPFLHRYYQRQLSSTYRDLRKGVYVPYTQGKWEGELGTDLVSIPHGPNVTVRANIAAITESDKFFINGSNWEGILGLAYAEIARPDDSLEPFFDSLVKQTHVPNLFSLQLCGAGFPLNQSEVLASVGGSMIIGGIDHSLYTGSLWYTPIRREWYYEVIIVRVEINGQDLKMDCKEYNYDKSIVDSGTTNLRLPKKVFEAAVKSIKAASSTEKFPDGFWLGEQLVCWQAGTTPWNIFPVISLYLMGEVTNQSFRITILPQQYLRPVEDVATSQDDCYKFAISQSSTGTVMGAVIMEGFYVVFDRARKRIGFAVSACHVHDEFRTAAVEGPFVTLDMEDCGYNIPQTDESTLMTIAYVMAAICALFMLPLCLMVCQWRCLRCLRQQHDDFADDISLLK

Row | Compound | inhibition at 10 µM (BACE1 [1]) | efflux ratio at 60 min, 0.5 μM (P-gp (MDR1)) | Ki (BACE1 [2])
1 | Cc1cc(C#N)cnc1C(=O)Nc1ccc(F)c([C@@]2(C)N=C(N)[C@@](C)(F)C[C@@H]2F)c1 [Compound 21, N-(3-((2R,3S,5S)-6-amino-3,5-difluoro-2,5-dimethyl-2,3,4,5-tetrahydropyridin-2-yl)-4-fluorophenyl)-5-cyano-3-methylpicolinamide] | 117% | 1.15 | 4.1 nM
2 | [2H]C([2H])([2H])Oc1ccc(C(=O)Nc2cc(F)c(F)c([C@@]3(C)N=C(N)[C@@](C)(F)C[C@@H]3F)c2)nc1 [Compound 22, N-(3-((2R,3S,5S)-6-amino-3,5-difluoro-2,5-dimethyl-2,3,4,5-tetrahydropyridin-2-yl)-4,5-difluorophenyl)-5-(methoxy-d3)picolinamide] | 101% | 0.52 | 3.6 nM
3 | [2H]C([2H])([2H])Oc1ccc(C(=O)Nc2ccc(F)c([C@@]3(C)N=C(N)[C@@](C)(F)C[C@H]3F)c2)nc1 [Compound 23, N-(3-((2R,3R,5S)-6-amino-3,5-difluoro-2,5-dimethyl-2,3,4,5-tetrahydropyridin-2-yl)-4-fluorophenyl)-5-(methoxy-d3)picolinamide] | 107% | 0.95 | 81 nM
